Reference: PubChem BioAssay (NCI)
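Five concentrations, 48 hours, 96-well plates. At the GI50, growth is halved. At the TGI there is no net growth.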

Assays:
Test in all cases: inhibition of tumour cell growth, NCI panel, 48 h
[1] = system: IGROV1 ovarian
[2] = system: SF-268 CNS
[3] = system: SK-MEL-2 melanoma
[4] = system: OVCAR-5 ovarian
[5] = system: NCI-H226 lung
[6] = system: MOLT-4 leukemia
[7] = system: RXF 393 renal
[8] = system: COLO 205 colon
[9] = system: EKVX NSCLC
[10] = system: TK-10 renal
[11] = system: T-47D breast
[12] = system: SNB-75 CNS
[13] = system: SR leukemia
[14] = system: SW-620 colon
[15] = system: OVCAR-8 ovarian
[16] = system: MCF7 breast
[17] = system: U251 CNS
[18] = system: SN12C renal
[19] = system: NCI/ADR-RES ovarian
[20] = system: SK-MEL-5 melanoma
[21] = system: UACC-62 melanoma
[22] = system: MDA-MB-231 breast
[23] = system: HCT-15 colon
[24] = system: HCC-2998 colon
[25] = system: SNB-19 CNS
[26] = system: UO-31 renal
[27] = system: HL-60(TB) leukemia
[28] = system: LOX IMVI melanoma
[29] = system: 786-0 renal
[30] = system: NCI-H460 lung
[31] = system: A549 NSCLC
[32] = system: SK-MEL-28 melanoma
[33] = system: PC-3 prostate
[34] = system: KM12 colon
[35] = system: K-562 leukemia
[36] = system: UACC-257 melanoma
[37] = system: HCT-116 colon
[38] = system: SK-OV-3 ovarian
[39] = system: BT-549 breast
[40] = system: NCI-H23 lung
[41] = system: SF-295 CNS
[42] = system: HOP-92 NSCLC
[43] = system: DU-145 prostate
[44] = system: HT29 colon
[45] = system: ACHN renal
[46] = system: A498 renal
[47] = system: OVCAR-4 ovarian
[48] = system: HOP-62 NSCLC
[49] = system: RPMI-8226 leukemia
[50] = system: CCRF-CEM leukemia
[51] = system: MDA-MB-435
[52] = system: MALME-3M melanoma
[53] = system: NCI-H522 lung
[54] = system: SF-539 CNS
[55] = system: OVCAR-3 ovarian
[56] = system: HS 578T breast

Molecule `Cc1ccc(-c2cc(C(=O)N3N=C(c4ccc(N)cc4)CC3c3ccc(Cl)cc3)c3ccccc3n2)cc1` (configuration not stated) has a GI50 [1] of 6.48 µM, a TGI [1] greater than 100 µM and a GI50 [2] of 4.09 µM. It also gave a TGI [2] greater than 100 µM, a GI50 [3] of 3.81 µM and a TGI [3] greater than 100 µM. For the same molecule, the GI50 [4] was 8.43 µM, the TGI [4] was greater than 100 µM and the GI50 [5] was 6.47 µM. It also gave a TGI [5] greater than 100 µM, a GI50 [6] of 3.23 µM and a TGI [6] greater than 100 µM. It also gave a GI50 [7] of 1630 nM, a TGI [7] of 7.06 µM and a GI50 [8] of 2800 nM. For the same molecule, the TGI [8] was 9.48 µM, the GI50 [9] was 3.99 µM and the TGI [9] was greater than 100 µM. It also gave a GI50 [10] of 8.51 µM, a TGI [10] greater than 100 µM and a GI50 [11] of 2730 nM. The TGI [11] was greater than 100 µM, the GI50 [12] was 1410 nM and the TGI [12] was 6.68 µM. The GI50 [13] was 3.29 µM, the TGI [13] was greater than 100 µM and the GI50 [14] was 4.24 µM. It also gave a TGI [14] greater than 100 µM, a GI50 [15] of 5.25 µM and a TGI [15] greater than 100 µM. For the same molecule, the GI50 [16] was 2530 nM, the TGI [16] was greater than 100 µM and the GI50 [17] was 4.51 µM. The TGI [17] was greater than 100 µM, the GI50 [18] was 6.84 µM and the TGI [18] was greater than 100 µM. For the same molecule, the GI50 [19] was 2540 nM, the TGI [19] was greater than 100 µM and the GI50 [20] was 2500 nM. The TGI [20] was greater than 100 µM, the GI50 [21] was 2060 nM and the TGI [21] was greater than 100 µM. The GI50 [22] was 3.94 µM, the TGI [22] was 92.2 µM and the GI50 [23] was 3.33 µM. The TGI [23] was greater than 100 µM, the GI50 [24] was 4.28 µM and the TGI [24] was greater than 100 µM. For the same molecule, the GI50 [25] was 6.51 µM, the TGI [25] was greater than 100 µM and the GI50 [26] was 2200 nM. The TGI [26] was greater than 100 µM, the GI50 [27] was 3.49 µM and the TGI [27] was greater than 100 µM. For the same molecule, the GI50 [28] was 4 µM, the TGI [28] was greater than 100 µM and the GI50 [29] was 4.22 µM. It also gave a TGI [29] greater than 100 µM, a GI50 [30] of 3.51 µM and a TGI [30] greater than 100 µM. It also gave a GI50 [31] of 4.79 µM, a TGI [31] greater than 100 µM and a GI50 [32] of 6.23 µM. The TGI [32] was greater than 100 µM, the GI50 [33] was 3.4 µM and the TGI [33] was greater than 100 µM. The GI50 [34] was 3.46 µM, the TGI [34] was greater than 100 µM and the GI50 [35] was 3.09 µM. The TGI [35] was greater than 100 µM, the GI50 [36] was 33.7 µM and the TGI [36] was greater than 100 µM. For the same molecule, the GI50 [37] was 3.18 µM, the TGI [37] was greater than 100 µM and the GI50 [38] was 4.94 µM. The TGI [38] was greater than 100 µM, the GI50 [39] was 3.92 µM and the TGI [39] was greater than 100 µM. For the same molecule, the GI50 [40] was 5.02 µM, the TGI [40] was greater than 100 µM and the GI50 [41] was 3.13 µM. It also gave a TGI [41] greater than 100 µM, a GI50 [42] of 4.1 µM and a TGI [42] of 92.3 µM. For the same molecule, the GI50 [43] was 3.68 µM, the TGI [43] was greater than 100 µM and the GI50 [44] was 3.35 µM. For the same molecule, the TGI [44] was greater than 100 µM, the GI50 [45] was 4.19 µM and the TGI [45] was greater than 100 µM. For the same molecule, the GI50 [46] was 1640 nM, the TGI [46] was 6.5 µM and the GI50 [47] was 4.71 µM. It also gave a TGI [47] greater than 100 µM, a GI50 [48] of 4.62 µM and a TGI [48] greater than 100 µM. It also gave a GI50 [49] of 4.1 µM, a TGI [49] greater than 100 µM and a GI50 [50] of 4.53 µM. The TGI [50] was greater than 100 µM, the GI50 [51] was 1000 nM and the TGI [51] was 3.66 µM. The GI50 [52] was greater than 100 µM, the TGI [52] was greater than 100 µM and the GI50 [53] was 622 nM. For the same molecule, the TGI [53] was 4.21 µM, the GI50 [54] was 2430 nM and the TGI [54] was 8.1 µM. The GI50 [55] was 2980 nM, the TGI [55] was 36.6 µM and the GI50 [56] was 4.68 µM. It also gave a TGI [56] greater than 100 µM.
